Measured values as given in ChEMBL document CHEMBL3046079, “Synthesis, herbicidal activity, and mode of action of IR 5790” (J Agric Food Chem, 2001).
In brackets after ≈: the same amount, converted by molar mass.

Tests used:
[1] = target: T1, Putative protoporphyrinogen IX oxidase (Cucumis sativus) (UniProt C6L817); assay: Inhibition of protoporphyrin oxidase in Cucumis sativus (cucumber) cotyledon disc assessed as increase in extraplastidic protoporphyrin 9 accumulation at 100 uM incubated in dim light for 2 hr by HPLC analysis relative to control
T1 sequence (whole entry): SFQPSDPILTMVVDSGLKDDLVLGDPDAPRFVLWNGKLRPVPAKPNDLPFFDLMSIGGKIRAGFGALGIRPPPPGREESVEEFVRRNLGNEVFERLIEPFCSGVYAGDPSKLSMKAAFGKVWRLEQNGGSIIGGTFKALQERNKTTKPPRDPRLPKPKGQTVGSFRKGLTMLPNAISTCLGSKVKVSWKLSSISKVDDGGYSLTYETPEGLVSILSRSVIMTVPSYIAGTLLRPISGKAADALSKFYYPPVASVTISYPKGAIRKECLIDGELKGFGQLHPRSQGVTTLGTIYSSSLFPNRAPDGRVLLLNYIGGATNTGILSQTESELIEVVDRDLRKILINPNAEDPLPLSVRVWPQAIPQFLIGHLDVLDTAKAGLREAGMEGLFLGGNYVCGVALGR

Chenopodium album [2] = assay: Pre-emergence herbicidal activity against Chenopodium album assessed as injury at 50 g/ha applied at 24 hr post-sowing measured after 28 days relative to control; type: functional
Chenopodium album [3] = assay: Post-emergence herbicidal activity against Chenopodium album assessed as injury at 150 g/ha applied at 15 days post-sowing measured after 15 days relative to control; type: functional
Veronica persica = assay: Pre-emergence herbicidal activity against Veronica persica assessed as injury at 150 g/ha applied at 24 hr post-sowing measured after 28 days relative to control; type: functional
Geranium dissectum [4] = assay: Pre-emergence herbicidal activity against Geranium dissectum assessed as injury at 50 g/ha applied at 24 hr post-sowing measured after 28 days relative to control; type: functional
Solanum nigrum [5] = assay: Pre-emergence herbicidal activity against Solanum nigrum (black nightshade) assessed as injury at 150 g/ha applied at 24 hr post-sowing measured after 28 days relative to control; type: functional
Zea mays = assay: Phytotoxicity against Zea mays (maize) assessed as injury at 150 g/ha applied as pre-emergent treatment at 24 hr post-sowing measured after 28 days relative to control; type: organism-based; conditions: in vivo, other, 672 h
Capsella bursa-pastoris [6] = assay: Post-emergence herbicidal activity against Capsella bursa-pastoris assessed as injury at 150 g/ha applied at 15 days post-sowing measured after 15 days relative to control; type: functional
Matricaria chamomilla = assay: Pre-emergence herbicidal activity against Matricaria chamomilla assessed as injury at 50 g/ha applied at 24 hr post-sowing measured after 28 days relative to control; type: functional
Galium aparine = assay: Pre-emergence herbicidal activity against Galium aparine assessed as injury at 50 g/ha applied at 24 hr post-sowing measured after 28 days relative to control; type: functional
Ammi majus = assay: Post-emergence herbicidal activity against Amni maius assessed as injury at 50 g/ha applied at 15 days post-sowing measured after 15 days relative to control; type: functional
Geranium dissectum [7] = assay: Pre-emergence herbicidal activity against Geranium dissectum assessed as injury at 150 g/ha applied at 24 hr post-sowing measured after 28 days relative to control; type: functional
Solanum nigrum [8] = assay: Post-emergence herbicidal activity against Solanum nigrum (black nightshade) assessed as injury at 5 g/ha applied at 15 days post-sowing measured after 15 days relative to control; type: functional
Portulaca oleracea = assay: Pre-emergence herbicidal activity against Portulaca oleracea assessed as injury at 150 g/ha applied at 24 hr post-sowing measured after 28 days relative to control; type: functional
[9] = Aqueous solubility of the compound; type: physicochemical; conditions: water
Ipomoea purpurea [10] = assay: Pre-emergence herbicidal activity against Ipomoea purpurea (common morning-glory) assessed as injury at 50 g/ha applied at 24 hr post-sowing measured after 28 days relative to control; type: functional
Oryza sativa = assay: Phytotoxicity against Oryza sativa (rice) assessed as injury at 150 g/ha applied as post-emergent treatment at 15 days post-sowing measured after 15 days relative to control; type: organism-based; conditions: in vivo, other, 360 h
Echinochloa crus-galli [11] = assay: Pre-emergence herbicidal activity against Echinochloa crus-galli (barnyard grass) assessed as injury at 150 g/ha applied at 24 hr post-sowing measured after 28 days relative to control; type: functional
Stellaria media [12] = assay: Post-emergence herbicidal activity against Stellaria media assessed as injury at 50 g/ha applied at 15 days post-sowing measured after 15 days relative to control; type: functional
Sida spinosa [13] = assay: Post-emergence herbicidal activity against Sida spinosa assessed as injury at 150 g/ha applied at 15 days post-sowing measured after 15 days relative to control; type: functional
Setaria viridis [14] = assay: Pre-emergence herbicidal activity against Setaria viridis (green foxtail) assessed as injury at 150 g/ha applied at 24 hr post-sowing measured after 28 days relative to control; type: functional
Alopecurus myosuroides = assay: Post-emergence herbicidal activity against Alopecurus myosuroides assessed as injury at 5 g/ha applied at 15 days post-sowing measured after 15 days relative to control; type: functional
Setaria viridis [15] = assay: Post-emergence herbicidal activity against Setaria viridis (green foxtail) assessed as injury at 150 g/ha applied at 15 days post-sowing measured after 15 days relative to control; type: functional
[16] = Solubility of the compound in organis solvent; type: physicochemical
Echinochloa crus-galli [17] = assay: Post-emergence herbicidal activity against Echinochloa crus-galli (barnyard grass) assessed as injury at 50 g/ha applied at 15 days post-sowing measured after 15 days relative to control; type: functional
Geranium dissectum [18] = assay: Post-emergence herbicidal activity against Geranium dissectum assessed as injury at 150 g/ha applied at 15 days post-sowing measured after 15 days relative to control; type: functional
Ipomoea purpurea [19] = assay: Post-emergence herbicidal activity against Ipomoea purpurea (common morning-glory) assessed as injury at 15 g/ha applied at 15 days post-sowing measured after 15 days relative to control; type: functional
Stellaria media [20] = assay: Pre-emergence herbicidal activity against Stellaria media assessed as injury at 50 g/ha applied at 24 hr post-sowing measured after 28 days relative to control; type: functional
Glycine max = assay: Phytotoxicity against Glycine max (soybean) assessed as injury at 15 g/ha applied as post-emergent treatment at 15 days post-sowing measured after 15 days relative to control; type: organism-based; conditions: in vivo, other, 360 h
Echinochloa crus-galli [21] = assay: Post-emergence herbicidal activity against Echinochloa crus-galli (barnyard grass) assessed as injury at 150 g/ha applied at 15 days post-sowing measured after 15 days relative to control; type: functional
Sida spinosa [22] = assay: Pre-emergence herbicidal activity against Sida spinosa assessed as injury at 150 g/ha applied at 24 hr post-sowing measured after 28 days relative to control; type: functional
Solanum nigrum [23] = assay: Post-emergence herbicidal activity against Solanum nigrum (black nightshade) assessed as injury at 150 g/ha applied at 15 days post-sowing measured after 15 days relative to control; type: functional
Avena fatua = assay: Pre-emergence herbicidal activity against Avena fatua assessed as injury at 150 g/ha applied at 24 hr post-sowing measured after 28 days relative to control; type: functional
Capsella bursa-pastoris [24] = assay: Pre-emergence herbicidal activity against Capsella bursa-pastoris assessed as injury at 50 g/ha applied at 24 hr post-sowing measured after 28 days relative to control; type: functional

## C#CCOc1cc(-n2nc(C(C)(C)C)sc2=O)c(Cl)cc1Cl
[1]
  fold change (FC): 292
Chenopodium album [2]
  Activity: 70%
Chenopodium album [3]
  Activity: 90%
Veronica persica
  Activity: 50%
Geranium dissectum [4]
  Activity: 0%
Solanum nigrum [5]
  Activity: 70%
Zea mays
  Activity: 0%
Capsella bursa-pastoris [6]
  Activity: 50%
Matricaria chamomilla
  Activity: 0%
Galium aparine
  Activity: 0%
Ammi majus
  Activity: 0%
Geranium dissectum [7]
  Activity: 0%
Solanum nigrum [8]
  Activity: 0%
Portulaca oleracea
  Activity: 90%
[9]
  solubility: 1.1 µg/mL (≈ 3.08 µM)
Ipomoea purpurea [10]
  Activity: 0%
Oryza sativa
  Activity: 0%
Echinochloa crus-galli [11]
  Activity: 70%
Stellaria media [12]
  Activity: 0%
Sida spinosa [13]
  Activity: 70%
Setaria viridis [14]
  Activity: 70%
Alopecurus myosuroides
  Activity: 0%
Setaria viridis [15]
  Activity: 70%
[16]
  solubility: > 250000 µg/mL
Echinochloa crus-galli [17]
  Activity: 0%
Geranium dissectum [18]
  Activity: 50%
Ipomoea purpurea [19]
  Activity: 90%
Stellaria media [20]
  Activity: 0%
Glycine max
  Activity: 0%
Echinochloa crus-galli [21]
  Activity: 10%
Sida spinosa [22]
  Activity: 0%
Solanum nigrum [23]
  Activity: 90%
Avena fatua
  Activity: 0%
Capsella bursa-pastoris [24]
  Activity: 70%
